The target in one test is T1, PA2652-LBD (Pseudomonas aeruginosa, UniProt Q9I0I6).
T1 construct: The DNA fragment encoding the LBD of PA2652 (Lys^34–Thr^205) was amplified; His-tag (vector-encoded by pET28b(+) via NdeI site); made in house; host or cells: Escherichia coli BL21 (DE3)
Briefly: ITC titration with L-malic acid in absence and presence of antagonists (competition). The format is binding, Pseudomonas aeruginosa PAO1. An excerpt:
In order to understand the mechanistic role of these antagonistics in the chemotaxis behaviour of P. aeruginosa, we first carried out ITC binding studies. In these assays, we measured the affinity of L-malic acid for PA2652-LBD in the presence of different concentrations of citraconic and D,L-methylsuccinic acids. […] Considering the close structural similarity of antagonists and L-malic acid (Fig. 3) it is likely that these compounds compete for binding at the same site at PA2652.
Figure 7 Attractants and antagonists compete for binding at PA2652-LBD in vitro. Isothermal titration calorimetry analysis of the binding of L-malic acid to PA2652-LBD in the absence and presence of 2 or 20 mM of the antagonists, citraconic and D,L-methylsuccinic acids. Upper panel: Titration raw data for the injection of 9.6 μl aliquots of 1 mM of L-malic acid into 20 μM of protein in the absence and presence of antagonists (present both in the injector syringe and sample cell). Lower panel: Integrated, dilution heat corrected and concentration normalized peak areas fitted with the “One binding site” model of ORIGIN. The apparent binding constants are listed in Supplementary Table S2.
Experiments were conducted on a VP-microcalorimeter (Microcal, Amherst, MA, USA) at 20 °C. PA2652-LBD was dialyzed overnight against TNG buffer, adjusted to a concentration of 20–35 μM and placed into the sample cell of the instrument. The protein was titrated by the injection of 9.6–14.4 μl aliquots of 1–20 mM ligand solutions that were prepared in TNG buffer (20 mM Tris/HCl, 150 mM NaCl, 10% (v/v) glycerol, pH 6.8) immediately before use. The mean enthalpies measured from the injection of ligands into buffer were subtracted from raw titration data prior to data analysis with the MicroCal version of ORIGIN. Data were fitted with the “One binding site model”.

The test system of test [1] is Pseudomonas aeruginosa PAO1 (wt and PA2652 mutant). Briefly: Growth experiments with ligands as sole carbon source. The format is cell-based. Particulars: M9 minimal medium, 10 mM carbon source. The text has this: To evaluate the physiological relevance of the ligands identified, we first addressed the question of whether they could support bacterial growth as sole carbon source. To this end, we conducted growth experiments of the wild type (wt) strain and a mutant defective in PA2652 in minimal medium supplemented with the different ligands as sole carbon sources.
Bacterial strains used in this study are listed in Supplementary Table S3. Pseudomonas aeruginosa PAO1 and its derivative strains were routinely grown at 37 °C in Luria Broth (LB; 5 g yeast extract l^−1, 10 g Bacto tryptone l^−1 and 5 g NaCl l^−1) or M9 medium supplemented with 1 mM MgSO4, 6 mg l^−1 Fe-citrate, trace elements[81] and 15 mM glucose as carbon source. For growth experiments to assess the capacity of PA2652-LBD ligands to support growth a sole C-source, PAO1 cells were pre-cultured overnight in M9 medium supplemented with 10 mM glucose and washed twice with M9 medium salts, prior to the inoculation of M9 medium containing10 mM of the different carbon sources. When necessary, the pH of the medium was adjusted to 7.0 prior to inoculation. Bacterial growth over the time was monitored using Bioscreen Microbiological Growth Analyser (Oy Growth Curves Ab Ltd, Helsinki, Finland). Escherichia coli strains were grown at 37 °C in LB. Escherichia coli DH5α was used as a host for gene cloning. When appropriate, antibiotics were used at the following final concentrations (in µg ml^−1): kanamycin, 25 (E. coli strains) and 100 (Pseudomonas strains); tetracycline, 40.

Test [2] has as its system Pseudomonas aeruginosa PAO1. Briefly: Quantitative capillary chemotaxis assay, wild type. In kind it is cell-based. The procedure:
Secondly, we assessed the capacity of the ligands identified to induce chemotaxis. To this end, we carried out quantitative capillary chemotaxis assays using the wt strain and PA2652 ligands at concentrations ranging from 10 µM to 100 mM.
(§1) Overnight cultures of P. aeruginosa strains were diluted to an OD660 of 0.05 in MS medium (30 mM Na2HPO4, 20 mM KH2PO4, 25 mM NH4NO3, 1 mM MgSO4) supplemented with 6 mg l^−1 Fe-citrate, trace elements[81] and 15 mM glucose as carbon source, and grown at 37 °C with orbital shaking (200 rpm). At an OD660 of 0.4 ([…]) cultures were centrifuged at 1,700 × g for 5 min and the resulting pellet was washed twice with chemotaxis buffer (50 mM potassium phosphate, […], 0.05% (v/v) glycerol, pH 7.0). Subsequently, the cells were resuspended in the same buffer, adjusted to an OD660 of 0.1 and 230 µl aliquots of the bacterial cultures were placed into 96-well plates. For the quantitative assays, one-microliter capillary tubes (Microcaps, Drummond Scientific, Ref. P1424) were heat-sealed at one end and filled with either the chemotaxis buffer (negative control) or chemotaxis buffer containing the chemoeffectors to test. The capillaries were immersed into the bacterial suspensions at its open end. After 30 min at room temperature, capillaries were removed from the bacterial suspensions, rinsed with sterile water and the content expelled into 1 ml of M9 medium salts. Serial dilutions were plated onto M9 minimal medium (containing the appropriate antibiotics) supplemented with 15 mM glucose as carbon source. The number of colony forming units was determined after overnight incubation. In all cases, data were corrected with the number of cells that swam into buffer containing capillaries.

The test system of test [3] is Pseudomonas aeruginosa PAO1 cheA2 mutant. Briefly: Capillary chemotaxis assay, cheA2 mutant. In kind it is cell-based. The following applies: 10 mM L-malic acid. The procedure: A recent bioinformatic study has predicted that PA2652 signals through the che pathway. To verify this prediction we conducted chemotaxis assays to L-malic acid using the wt strain as well as mutants in cheA1 and cheA2, encoding respectively the histidine kinases of the che and che2 pathways.
as §1, with “After 30 min at room temperature, capillaries were removed from the bacterial suspensions, rinsed with sterile water and the content expelled into 1 ml of M9 medium salts. Serial dilutions were plated onto M9 minimal medium (containing the appropriate antibiotics) supplemented with 15 mM glucose as carbon source.” left out, “In all cases, data were corrected with the number of cells that swam into buffer containing capillaries.” left out

The mark [4] stands for this setting: L-malic acid titration in presence of 2 mM D,L-methylsuccinic acid.
Setting [5] is: L-malic acid titration in presence of 2 mM citraconic acid.
Where [6] appears, read: L-malic acid titration in presence of 20 mM D,L-methylsuccinic acid.
Setting [7] is: L-malic acid titration in presence of 20 mM citraconic acid.
[8] abbreviates: L-malic acid titration, no antagonist.

Entries after “also recorded” stand apart in the source; their conditions may differ.

T1 sequence (Q9I0I6 34-205): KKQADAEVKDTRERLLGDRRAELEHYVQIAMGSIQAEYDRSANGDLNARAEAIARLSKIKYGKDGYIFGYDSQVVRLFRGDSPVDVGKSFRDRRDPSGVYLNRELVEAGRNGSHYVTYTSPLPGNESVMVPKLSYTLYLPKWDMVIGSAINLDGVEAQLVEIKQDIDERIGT

A word on the Kd: it is the equilibrium constant for the complex coming apart. For `O=C(O)C[C@H](O)C(=O)O` [L-malic acid], the Kd on PA2652-LBD was 23 ± 1 µM. Moreover, the “n (apparent)” value on PA2652-LBD (setting [4]) turned out to be 0.6 ± 0.1; at PA2652-LBD (setting [5]), 0.9 ± 0.2; on PA2652-LBD (setting [6]), 1.1 ± 0.9; on PA2652-LBD (setting [7]) it was 1.1 ± 1; at PA2652-LBD (setting [8]) it was 1 ± 0.1. The “∆H (apparent)” value on PA2652-LBD (setting [4]) was -6.7 ± 1 kcal/mol; on PA2652-LBD (setting [5]), -5.1 ± 1 kcal/mol; at PA2652-LBD (setting [6]), -2.6 ± 2 kcal/mol; on PA2652-LBD (setting [7]), -3.3 ± 5 kcal/mol; at PA2652-LBD (setting [8]), -4.1 ± 0.6 kcal/mol. Besides, the “Change of apparent affinity of L-malic acid” value is on record as “further reduction in the apparent affinity” at PA2652-LBD (antagonists increased to 20 mM) and “decreased approximately by a factor of two” on PA2652-LBD (in the presence of 2 mM antagonists (citraconic or D,L-methylsuccinic acid)). Further, in test [1], the “Ability to support bacterial growth as sole carbon source” value is “able to efficiently sustain growth”. For the same compound, in test [2] (authors' classification from chemotaxis results), the “Role of PA2652 ligand (chemoattractant or antagonist)” value is “chemoattractants”. For the same compound, the Chemotactic response result in test [2] (wt PAO1, ligands at 10 µM to 100 mM) is “strong chemotaxis responses”. The “Chemotaxis in cheA2 mutant” value in test [3] is on record as “almost identical to that of wt strain; also recorded: indistinguishable from that of the wt”.

(Values after PMC5795001, “The activity of the C4-dicarboxylic acid chemoreceptor of Pseudomonas aeruginosa is controlled by chemoattractants and antagonists” (Scientific Reports, 2018).)
